# Experimental data reported in ChEMBL document CHEMBL1201862, “PubChem BioAssay data set” (2004).
# Calls of active or inactive are those of the source.
# How the values were obtained:
# [1] = target: Ubiquitin carboxyl-terminal hydrolase BAP1 (Homo sapiens, UniProt Q92560); experiment: inhibition of BAP1 ubiquitin hydrolase activity – biochemical, dose response (AID 714); type: functional
# Streptokinase A = target: T1, Streptokinase A (Streptococcus pyogenes serotype M1, UniProt P10520); experiment: viability-normalized secreted streptokinase activity reduction – plasminogen activation absorbance, OD405, dose response (AID 1914); type: functional, Streptococcus pyogenes M1 GAS;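 also: secreted streptokinase activity via plasminogen activation per viability signal from cell pellet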
# T1 sequence (P10520 whole entry): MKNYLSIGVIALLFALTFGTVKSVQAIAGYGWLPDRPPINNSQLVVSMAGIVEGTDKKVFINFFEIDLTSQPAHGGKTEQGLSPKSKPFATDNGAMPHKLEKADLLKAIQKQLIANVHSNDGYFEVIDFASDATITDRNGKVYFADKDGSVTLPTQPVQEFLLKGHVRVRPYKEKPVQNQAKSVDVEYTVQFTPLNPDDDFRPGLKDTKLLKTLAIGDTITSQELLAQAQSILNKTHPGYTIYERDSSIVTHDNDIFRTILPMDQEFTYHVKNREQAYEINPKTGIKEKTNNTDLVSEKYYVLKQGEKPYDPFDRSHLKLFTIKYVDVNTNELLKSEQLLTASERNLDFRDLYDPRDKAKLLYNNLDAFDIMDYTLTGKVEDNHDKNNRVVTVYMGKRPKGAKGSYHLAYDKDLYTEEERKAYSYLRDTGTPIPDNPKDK
# [2] = dual-tagged ARNT PAS-B bead signal quenchers – biochemical, dry powder, artefact control for ARNT/TACC3 disruptor project, dose response (AID 720564)
# [3] = ATP-based viability loss in HepG2 cells – cell-based, CellTiter-Glo luminescence, dry powder, set 3, cytotoxicity control, dose response (AID 720594); type: functional
# [4] = test system: Streptococcus sp. 'group A'; experiment: Streptococcus pyogenes SK(-)GAS viability under kanamycin – luminescence, BacTiterGlo, confirmation, counter-screen for streptokinase expression inhibitor project, dose response (AID 1900); type: functional, organism-based
# [5] = ATP-based viability loss in HEK293T cells – cell-based, CellTiter-Glo luminescence, dry powder, set 2, cytotoxicity control, dose response (AID 720595); type: functional; conditions: HEK293
# Streptococcus = experiment: GAS UMAA2166 growth inhibition – luminescence, BacTiterGlo, counter-screen for streptokinase expression inhibitor project, dose response (AID 1915); type: functional, organism-based;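 also: potency for reduction of bacterial viability or growth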
# [6] = target: T2, Tyrosine-protein phosphatase non-receptor type 7 (Homo sapiens, UniProt P35236); experiment: HePTP tyrosine phosphatase activity blockers – biochemical, absorbance, leukemia target, primary screen (AID 521); type: functional
# T2 sequence (P35236 whole entry): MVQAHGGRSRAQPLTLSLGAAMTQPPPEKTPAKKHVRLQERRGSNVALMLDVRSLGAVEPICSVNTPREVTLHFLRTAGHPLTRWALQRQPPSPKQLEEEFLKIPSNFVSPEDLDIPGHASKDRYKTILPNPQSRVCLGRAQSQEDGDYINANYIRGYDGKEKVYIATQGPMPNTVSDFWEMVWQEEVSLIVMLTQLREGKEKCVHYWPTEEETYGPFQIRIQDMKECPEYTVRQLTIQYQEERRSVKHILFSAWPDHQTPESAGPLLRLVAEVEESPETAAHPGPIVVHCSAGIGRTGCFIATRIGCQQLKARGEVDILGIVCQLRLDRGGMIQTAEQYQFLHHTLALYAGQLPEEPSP
# [7] = target: Muscarinic acetylcholine receptor M5 (Homo sapiens, UniProt P08912); experiment: potentiation of ACh response at human M5 – cell-based, concentration-response curve, dose response (AID 651878); type: functional
# [8] = general cell-killing toxicity readout – plate reader, dry powder samples, cytotoxicity control for PAX8 inhibitor project, dose response (AID 743021); type: functional, cell-based
# [9] = OVCAR-3 cell viability loss – plate reader, dry powder samples, PAX8 inhibitor project, dose response (AID 743044); type: functional, cell-based
# Paired box protein Pax-8 = Paired box protein Pax-8 (Homo sapiens, UniProt Q06710); experiment: PAX8 transcriptional activity inhibition in RMG-I – RMG-I cells, luciferase, cherry-pick, dose response (AID 687027); type: functional, cell-based;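 also: luciferase reporter driven by Pax8 target thyroperoxidase promoter measured by SteadyGlo luminescence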
# [10] = IGROV1 cell killing – plate reader, dry powder samples, PAX8 inhibitor project, dose response (AID 743043); type: functional, cell-based; conditions: IGROV-1
# Chain of Muscarinic acetylcholine receptor M5 (P08912 whole entry): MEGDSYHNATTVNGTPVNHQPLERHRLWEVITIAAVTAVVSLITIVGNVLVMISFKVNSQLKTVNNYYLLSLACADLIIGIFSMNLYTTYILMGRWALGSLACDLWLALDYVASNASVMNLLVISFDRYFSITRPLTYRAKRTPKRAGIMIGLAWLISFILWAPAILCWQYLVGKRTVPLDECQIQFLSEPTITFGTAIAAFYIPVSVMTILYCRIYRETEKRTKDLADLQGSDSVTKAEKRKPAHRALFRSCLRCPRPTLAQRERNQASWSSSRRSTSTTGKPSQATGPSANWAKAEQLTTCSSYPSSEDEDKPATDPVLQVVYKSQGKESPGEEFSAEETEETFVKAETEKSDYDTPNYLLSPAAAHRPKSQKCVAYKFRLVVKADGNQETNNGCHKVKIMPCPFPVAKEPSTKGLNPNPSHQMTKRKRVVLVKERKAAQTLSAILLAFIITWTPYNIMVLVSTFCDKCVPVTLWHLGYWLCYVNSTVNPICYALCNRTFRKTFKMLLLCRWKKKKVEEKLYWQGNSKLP
# Chain of Paired box protein Pax-8 (Q06710 whole entry): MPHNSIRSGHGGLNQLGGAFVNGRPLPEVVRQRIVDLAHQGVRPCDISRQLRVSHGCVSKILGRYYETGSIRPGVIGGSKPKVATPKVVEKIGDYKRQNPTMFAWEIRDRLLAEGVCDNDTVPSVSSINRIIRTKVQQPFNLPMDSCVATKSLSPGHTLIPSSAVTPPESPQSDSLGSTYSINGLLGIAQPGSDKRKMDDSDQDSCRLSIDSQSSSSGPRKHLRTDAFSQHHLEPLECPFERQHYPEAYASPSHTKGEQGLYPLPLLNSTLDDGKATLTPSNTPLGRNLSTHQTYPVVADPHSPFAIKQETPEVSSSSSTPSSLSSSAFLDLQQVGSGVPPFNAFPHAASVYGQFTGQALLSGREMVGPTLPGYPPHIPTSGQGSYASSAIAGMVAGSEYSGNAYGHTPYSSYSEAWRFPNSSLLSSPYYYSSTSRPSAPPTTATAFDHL
# Chain of Ubiquitin carboxyl-terminal hydrolase BAP1 (Q92560 whole entry): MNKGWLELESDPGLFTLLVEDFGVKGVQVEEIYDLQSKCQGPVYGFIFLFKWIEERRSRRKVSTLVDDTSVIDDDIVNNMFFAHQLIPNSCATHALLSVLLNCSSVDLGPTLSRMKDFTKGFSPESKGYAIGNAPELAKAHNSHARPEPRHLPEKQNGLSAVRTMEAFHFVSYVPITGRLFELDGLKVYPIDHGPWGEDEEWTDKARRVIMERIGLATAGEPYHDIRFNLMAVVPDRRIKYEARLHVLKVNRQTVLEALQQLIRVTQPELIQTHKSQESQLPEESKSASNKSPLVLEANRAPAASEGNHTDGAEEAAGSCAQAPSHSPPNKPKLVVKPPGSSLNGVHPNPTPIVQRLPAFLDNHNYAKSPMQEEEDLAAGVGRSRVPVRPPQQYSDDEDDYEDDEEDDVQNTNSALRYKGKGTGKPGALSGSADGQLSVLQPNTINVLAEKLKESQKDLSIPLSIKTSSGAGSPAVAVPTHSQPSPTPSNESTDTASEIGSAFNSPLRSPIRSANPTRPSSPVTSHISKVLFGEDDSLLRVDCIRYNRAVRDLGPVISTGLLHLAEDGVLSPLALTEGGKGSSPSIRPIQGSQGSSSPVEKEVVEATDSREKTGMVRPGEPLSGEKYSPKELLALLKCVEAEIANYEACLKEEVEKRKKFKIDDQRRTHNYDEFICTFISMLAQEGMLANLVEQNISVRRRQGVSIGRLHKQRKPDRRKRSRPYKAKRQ
structure (smiles),measurement,setting,value
Cc1sc(NC(=O)CSc2nnc(-c3ccccc3)o2)c(C#N)c1C,IC50,[1],44.8 µM (not active)
CC1CCCN(S(=O)(=O)c2ccc(C(=O)Nc3nnc(C4=COCCO4)o3)cc2)C1 (stereo not drawn),EC50,Streptokinase A,> 150 µM (not active)
same,AC50,[2],101 µM (active)
same,AC50,[3],> 52 µM (inactive)
same,EC50,[4],4.77 µM (active)
same,AC50,[5],27.6 µM (active)
same,EC50,Streptococcus,98.4 µM (active)
CCC(=O)Nc1c(C#N)c2nc3ccccc3nc2n1-c1ccc(C)cc1,IC50,[6],> 100 µM (not active)
O=C1C(=O)N(CCCOc2ccccc2)c2ccc(OC(F)(F)F)cc21,EC50,[7],1.97 µM (active)
C[C@@H]1CN([C@@H](C)CO)C(=O)Cc2cc(NS(=O)(=O)c3ccc(Cl)cc3)ccc2O[C@@H]1CN(C)CC1CCCCC1,AC50,[8],41.9 µM (active)
same,AC50,[9],21.2 µM (active)
same,AC50,Paired box protein Pax-8,11.7 µM (active)
same,AC50,[10],46.2 µM (active)
